Series [1] relates to VSV-SOmicron (S protein of SARS-CoV-2 Omicron BA.1). The series can be described thus: organism not typed. Type of series: cell-based.
The subject of series [2] is VSV-S (pseudotyped VSV carrying the S protein of Wuhan-Hu-1 SARS-CoV-2). The series can be described thus: microbe, parasite or virus in culture. Type of series: cell-based.
The test system of the next series is VSV-SWuhan-Hu-1. The series can be described thus: microbe, parasite or virus in culture. Type of series: cell-based, SARS-CoV-2. Conditions: Vesicular stomatitis virus, VeroE6/TMPRSS2, read-out: IC50 ± SD, pseudotyped VSV carrying S of Wuhan-Hu-1.
Series [3] in a line: in vitro. Particulars: human.
Series [4] has as its system VSV-S (pseudotyped VSV carrying the S protein of Wuhan-Hu-1 SARS-CoV-2). The series can be described thus: microbe, parasite or virus in culture. Type of series: cell-based. Particulars: read-out: IC50 (concentration at which virus infection is reduced by 50%), VSV-S in A549-ACE2-TMPRSS2 cells.
Series [5] is described as follows: in vitro. Conditions: African green monkey.
In series [6] the target is T1, SARS-CoV-2 RBD (Severe acute respiratory syndrome coronavirus 2, UniProt P0DTC2). Type of series: binding.
The target of series [7] is T1, SARS-CoV-2 RBD. As to the kind of experiment: biochemical. Type of series: binding.
In series [8] the target is binding of human ACE2 catalytic domain to RBD (Severe acute respiratory syndrome coronavirus 2, UniProt P0DTC2). More on the design: species or system SARS-CoV-2 / human.
For series [9], the system named is VSV-G (VSV pseudotyped with its native glycoprotein). Type of series: cell-based, vesicular stomatitis virus.
[10] abbreviates: VeroE6/TMPRSS2, read-out: IC50 ± SD, pseudotyped VSV carrying S of Omicron BA.1.
[11] abbreviates: Vesicular stomatitis virus, Vero C1008, read-out: IC50 (concentration at which virus infection is reduced by 50%), VSV-S in Vero E6 cells.
Where [12] appears, read: read-out: IC50 (concentration at which virus infection is reduced by 50%), VSV-S in Vero E6 cells.
Where [13] appears, read: read-out: IC50 ± SD, pseudotyped VSV carrying S of Omicron BA.1.

Entries after “also recorded” stand apart in the source; their conditions may differ. Read-outs that look alike come from different tables or passages of the source.

The values that follow come from PMC10424185, “C-2 Thiophenyl Tryptophan Trimers Inhibit Cellular Entry of SARS-CoV-2 through Interaction with the Viral Spike (S) Protein” (Journal of Medicinal Chemistry, 2023).

For the molecule `NCCOCCOCCC(=O)NCC(=O)NC(CCC(=O)NC(Cc1c(Sc2ccc([N+](=O)[O-])cc2)[nH]c2ccccc12)C(=O)O)(CCC(=O)NC(Cc1c(Sc2ccc([N+](=O)[O-])cc2)[nH]c2ccccc12)C(=O)O)CCC(=O)NC(Cc1c(Sc2ccc([N+](=O)[O-])cc2)[nH]c2ccccc12)C(=O)O` (stereo not shown) [Compound 63], the IC50 came out at 25.4 µM in [1] (setting [10]), 0.7 ± 0.9 µM in [2] (setting [11]), 0.01 µM in the series on VSV-SWuhan-Hu-1 and 1.4 ± 1.1 µM in series [4] (Vesicular stomatitis virus). Further, the CC50 in the series “in vitro [3]” and in the series “in vitro [5]” was > 100 µM throughout.

For `NCC(=O)NC(CCC(=O)NC(Cc1c(Sc2ccc(C(F)(F)F)cc2)[nH]c2ccccc12)C(=O)O)(CCC(=O)NC(Cc1c(Sc2ccc(C(F)(F)F)cc2)[nH]c2ccccc12)C(=O)O)CCC(=O)NC(Cc1c(Sc2ccc(C(F)(F)F)cc2)[nH]c2ccccc12)C(=O)O` (stereo not shown) [Compound 38], the IC50 in [2] (setting [11]) is 27.6 ± 12.6 µM; in series [4] (Vesicular stomatitis virus) it was 11.6 ± 4.8 µM. Further, at SARS-CoV-2 RBD [6], the “effect on thermofluor fluorescence profile / thermal stability of RBD (in words)” value was “shift of the curve toward lower temperatures”. In addition, the CC50 in the series “in vitro [3]” and in the series “in vitro [5]” was > 100 µM in each case.

Turning to `CS(=O)(=O)c1ccc(Sc2[nH]c3ccccc3c2CC(NC(=O)CCC(CCC(=O)NC(Cc2c(Sc3ccc(S(C)(=O)=O)cc3)[nH]c3ccccc23)C(=O)O)(CCC(=O)NC(Cc2c(Sc3ccc(S(C)(=O)=O)cc3)[nH]c3ccccc23)C(=O)O)NC(=O)CN)C(=O)O)cc1` (stereo not shown) [Compound 42], the “antiviral activity in the VSV-S assay (in words)” value in [2] is recorded as “no antiviral activity”. In [2] (setting [11]), the IC50 was > 50 µM. Besides, on SARS-CoV-2 RBD [7], the Kd was ≥ 2500 µM. The “effect on thermofluor fluorescence profile / thermal stability of RBD (in words)” value at SARS-CoV-2 RBD [6] is recorded as “did not cause any change in the curve; also recorded: no effect on the thermal stability of the RBD”. Besides, the CC50 in the series “in vitro [5]” is > 100 µM.

In the case of `CC(=O)c1ccc(Sc2[nH]c3ccccc3c2CC(NC(=O)CCC(CCC(=O)NC(Cc2c(Sc3ccc(C(C)=O)cc3)[nH]c3ccccc23)C(=O)O)(CCC(=O)NC(Cc2c(Sc3ccc(C(C)=O)cc3)[nH]c3ccccc23)C(=O)O)NC(=O)CN)C(=O)O)cc1` (stereo not shown) [Compound 41], the IC50 is ~2 µM in [2] (setting [11]), 3 ± 1.9 µM in series [2] (setting [12]), ~2 µM in series [4] (Vesicular stomatitis virus) and 2.3 ± 1.7 µM in series [4]. The “effect on thermofluor fluorescence profile / thermal stability of RBD (in words)” value on SARS-CoV-2 RBD [6] was “shift of the curve toward lower temperatures; also recorded: thermally destabilized the RBD”. For the same molecule, the CC50 in the series “in vitro [3]” and in “in vitro [5]” was > 100 µM each time.

As to `CCCCCCCC(=O)NCC(=O)NC(CCC(=O)NC(Cc1c(Sc2ccc([N+](=O)[O-])cc2)[nH]c2ccccc12)C(=O)O)(CCC(=O)NC(Cc1c(Sc2ccc([N+](=O)[O-])cc2)[nH]c2ccccc12)C(=O)O)CCC(=O)NC(Cc1c(Sc2ccc([N+](=O)[O-])cc2)[nH]c2ccccc12)C(=O)O` (stereo not shown) [Compound 57], the IC50 in [2] (setting [11]) worked out at 23.5 ± 3.8 µM; in series [4] (Vesicular stomatitis virus) it was 11.1 ± 5 µM. The “effect on thermofluor fluorescence profile / thermal stability of RBD (in words)” value at SARS-CoV-2 RBD [6] is “shift of the curve toward lower temperatures”. For the same molecule, the CC50 in “in vitro [3]” and in “in vitro [5]” was > 100 µM in each case.

Turning to `O=C(O)CCCCC(=O)NCC(=O)NC(CCC(=O)NC(Cc1c(Sc2ccc([N+](=O)[O-])cc2)[nH]c2ccccc12)C(=O)O)(CCC(=O)NC(Cc1c(Sc2ccc([N+](=O)[O-])cc2)[nH]c2ccccc12)C(=O)O)CCC(=O)NC(Cc1c(Sc2ccc([N+](=O)[O-])cc2)[nH]c2ccccc12)C(=O)O` (stereo not shown) [Compound 61], the IC50 in series [2] (setting [11]) was ~2 µM; in series [2] (setting [12]), 2.1 ± 1.5 µM; in series [4] (Vesicular stomatitis virus), ~2 µM; in series [4], 2.3 ± 0.8 µM. Further, the “effect on thermofluor fluorescence profile / thermal stability of RBD (in words)” value at SARS-CoV-2 RBD [6] is reported as “shift of the curve toward lower temperatures”. Besides, the CC50 in the series “in vitro [3]” and in “in vitro [5]” was > 100 µM in each case.

`O=C(CCOCCOCCOCCOCCC(=O)NCC(=O)NC(CCC(=O)NC(Cc1c(Sc2ccc([N+](=O)[O-])cc2)[nH]c2ccccc12)C(=O)O)(CCC(=O)NC(Cc1c(Sc2ccc([N+](=O)[O-])cc2)[nH]c2ccccc12)C(=O)O)CCC(=O)NC(Cc1c(Sc2ccc([N+](=O)[O-])cc2)[nH]c2ccccc12)C(=O)O)NCC(=O)NC(CCC(=O)NC(Cc1c(Sc2ccc([N+](=O)[O-])cc2)[nH]c2ccccc12)C(=O)O)(CCC(=O)NC(Cc1c(Sc2ccc([N+](=O)[O-])cc2)[nH]c2ccccc12)C(=O)O)CCC(=O)NC(Cc1c(Sc2ccc([N+](=O)[O-])cc2)[nH]c2ccccc12)C(=O)O` (stereo not shown) [Compound 65]: the IC50 was 6.24 ± 0.16 µM in series [1] (setting [10]); < 10 µM in [1] (setting [13]); 0.28 ± 0.23 µM in series [2] (setting [11]); 0.3 ± 0.2 µM in series [2] (setting [12]); 0.28 ± 0.23 µM in the series with VSV-SWuhan-Hu-1; 15.8 ± 1.5 µM in series [4] (Vesicular stomatitis virus). For the same molecule, the “increase of ACE2 concentrations needed for binding to the RBD” value in [8] is ~10 fold. For the same molecule, the “effect on thermofluor fluorescence profile / thermal stability of RBD (in words)” value at SARS-CoV-2 RBD [6] is reported as “shift of the curve toward lower temperatures”. The CC50 in the series “in vitro [3]” and in the series “in vitro [5]” was > 100 µM each time.

As for `CCCCCC(=O)NCC(=O)NC(CCC(=O)NC(Cc1c(Sc2ccc([N+](=O)[O-])cc2)[nH]c2ccccc12)C(=O)O)(CCC(=O)NC(Cc1c(Sc2ccc([N+](=O)[O-])cc2)[nH]c2ccccc12)C(=O)O)CCC(=O)NC(Cc1c(Sc2ccc([N+](=O)[O-])cc2)[nH]c2ccccc12)C(=O)O` (stereo not shown) [Compound 56], the values for the IC50 in series [2] (setting [11]) and in [4] (Vesicular stomatitis virus) were 18.9 ± 6.8 µM and 8.3 ± 1.1 µM, respectively. Besides, the CC50 in the series “in vitro [3]” and in “in vitro [5]” was > 100 µM in each case.

As to `O=C(CCOCC(COCCC(=O)NC(Cc1c(Sc2ccc([N+](=O)[O-])cc2)[nH]c2ccccc12)C(=O)O)(COCCC(=O)NC(Cc1c(Sc2ccc([N+](=O)[O-])cc2)[nH]c2ccccc12)C(=O)O)COCCC(=O)NC(Cc1c(Sc2ccc([N+](=O)[O-])cc2)[nH]c2ccccc12)C(=O)O)NC(Cc1c(Sc2ccc([N+](=O)[O-])cc2)[nH]c2ccccc12)C(=O)O` (stereo not shown) [Compound 1], the “primary HTS screening result (in words)” value in [2] is listed as “significant antiviral activity in the absence of cytotoxicity”. Moreover, the IC50 was 21.4 ± 9.45 µM in series [2] (setting [11]), 21.4 ± 9.5 µM in series [2] (setting [12]) and 18.5 ± 3.5 µM in series [4] (Vesicular stomatitis virus). Besides, the CC50 in the series “in vitro [3]” and in “in vitro [5]” was > 100 µM each time.

Consider `NCC(=O)NC(CCC(=O)NC(Cc1c(Sc2ccc([N+](=O)[O-])cc2)[nH]c2ccccc12)C(=O)O)(CCC(=O)NC(Cc1c(Sc2ccc([N+](=O)[O-])cc2)[nH]c2ccccc12)C(=O)O)CCC(=O)NC(Cc1c(Sc2ccc([N+](=O)[O-])cc2)[nH]c2ccccc12)C(=O)O` (stereo not shown) [Compound 2], for which the IC50 in series [1] (setting [13]) was found to be 21.7 ± 0.83 µM; in series [2] (setting [11]), 0.64 ± 0.47 µM; in series [2] (Vesicular stomatitis virus, Vero C1008, read-out: IC50, compound preincubated with the cells), 0.32 µM; in series [2] (Vesicular stomatitis virus, Vero C1008, read-out: IC50, compound preincubated with the virus), 0.48 µM; in [2] (setting [12]), 0.6 ± 0.5 µM; with VSV-SWuhan-Hu-1, 0.08 ± 0.07 µM. The IC50 in [4] (Vesicular stomatitis virus) was determined as 1 ± 0.4 µM. Also, in series [2], the “infection (viral GFP reporter) when compound added one-hour post virus addition” value is given as “no decrease in infection”. Also, the “infection (viral GFP reporter) when compound added together with the virus” value in [2] was “strong reduction in infection”. In addition, the “primary HTS screening result (in words)” value in [2] is reported as “significant antiviral activity in the absence of cytotoxicity”. Moreover, in [8], the “increase of ACE2 concentrations needed for binding to the RBD” value is reported as ~10 fold. For the same molecule, in [9], the “antiviral activity against VSV-G” value was “no antiviral activity”. The “effect on thermofluor fluorescence profile / thermal stability of RBD (in words)” value at SARS-CoV-2 RBD [6] is “shift of the curve toward lower temperatures”. Besides, the CC50 in the series “in vitro [3]” and in the series “in vitro [5]” was > 100 µM in each case.
